Laboratory results published in ChEMBL document CHEMBL3351462, “RORγt Modulators Are Potentially Useful for the Treatment of the Immune-Mediated Inflammatory Diseases” (ACS Med Chem Lett, 2014).
pIC50, pKd: −log10 of the molar value.

Assays:
[1] = target: T1, Nuclear receptor ROR-gamma (Homo sapiens) (UniProt P51449); test: Modulator activity at GAL4-tagged human RORgammat ligand binding domain expressed HEK293T cells by luciferase reporter gene assay relative to untreated control; type: cell-based; conditions: HEK-293T, concentration not given here
T1 sequence (whole entry): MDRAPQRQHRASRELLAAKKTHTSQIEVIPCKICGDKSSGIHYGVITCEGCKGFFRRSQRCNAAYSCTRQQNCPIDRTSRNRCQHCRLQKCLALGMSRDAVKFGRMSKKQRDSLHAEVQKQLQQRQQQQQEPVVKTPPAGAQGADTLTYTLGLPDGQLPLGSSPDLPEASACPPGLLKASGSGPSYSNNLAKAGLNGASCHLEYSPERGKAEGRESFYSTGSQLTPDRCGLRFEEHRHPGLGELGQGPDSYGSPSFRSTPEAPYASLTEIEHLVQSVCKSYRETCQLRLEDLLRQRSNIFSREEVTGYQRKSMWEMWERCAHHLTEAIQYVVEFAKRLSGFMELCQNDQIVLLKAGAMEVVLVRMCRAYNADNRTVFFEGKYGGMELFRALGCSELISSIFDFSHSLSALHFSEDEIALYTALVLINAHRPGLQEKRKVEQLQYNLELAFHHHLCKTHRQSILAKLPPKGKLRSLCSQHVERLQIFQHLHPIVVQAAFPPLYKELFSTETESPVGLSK

T-cell = test: Inhibition of IL17 production in human CD4-positive T cells incubated for 3 days; type: functional, cell-based; conditions: 72 h
[2] = target: T2, Nuclear receptor ROR-gamma (Homo sapiens, UniProt P51449); test: Binding affinity to human wild type RORgammat ligand binding domain expressed in Escherichia coli by thermofluor assay
T2 sequence (P51449 whole entry): T1 sequence (whole entry)

[3] = target: T2, Nuclear receptor ROR-gamma; test: Modulator activity at GAL4-tagged human RORgammat ligand binding domain expressed HEK293T cells by luciferase reporter gene assay; type: cell-based, HEK-293T

Row | inhibition [1] | pIC50 (T-cell) | pKd [2] | pIC50 [3] | SMILES
1 | 72% | 6.23 | – | – | Cn1cncc1C(O)(c1ccc(Cl)cc1)c1ccc2nc(Cl)c(Cc3ccccc3)c(Cl)c2c1 (stereo not given)
2 | 94% | 8.82 | – | – | COc1nc2ccc(C(O)(c3sc(C)nc3C)c3cnnn3C)cc2c(Cl)c1Cc1ccc(C(F)(F)F)cc1 (stereo not given)
3 | 99% | 7.60 | – | – | Cn1cncc1C(O)(c1ccc(C(F)(F)F)nc1)c1ccc2nc(C#N)c(Cc3ccc(-n4cccn4)cc3)c(C#N)c2c1 (stereo not given)
4 | 85% | 7.07 | 9.08 | 8.19 | OC(c1ccncc1)(c1ccc2nc(Cl)c(Cc3ccc(Cl)cc3)c(Cl)c2c1)c1cncs1 (stereo not given)
